# Reference: ChEMBL document CHEMBL3596150, “Acylated glucosylflavones as α-glucosidase inhibitors from Tinospora crispa leaf” (Bioorg Med Chem, 2015)
# Calls of active or inactive are those of the source. The calls are words filed in the database; no cut-off is given here.
# Experiments:
# [1] = Inhibition of Bacillus stearothermophilus alpha-glucosidase; parameters: species or system Geobacillus stearothermophilus
# [2] = Retention time of the compound by HPLC-SPE-NMR analysis; type: physicochemical
# [3] = tested on: Geobacillus stearothermophilus; test: Inhibition of Bacillus stearothermophilus alpha-glucosidase at 10 ug/ml
# [4] = Cytotoxicity against human WS1 cells; type: cell-based
Compound,IC50 [1] [µM],Retention_time [2] [min],inhibition [3],IC50 [4] [µM]
O=C(/C=C/c1ccc(O)cc1)O[C@@H]1[C@@H](O)[C@H](O)[C@@H](CO)O[C@H]1c1c(O)cc2oc(-c3ccc(O)cc3)cc(=O)c2c1O,4.3,36.5,–,–
O=c1cc(-c2ccc(O[C@@H]3O[C@H](CO)[C@@H](O)[C@H](O)[C@H]3O)c(O)c2)oc2cc(O)cc(O)c12,–,–,inactive,–
COc1cc(/C=C/C(=O)O[C@@H]2[C@@H](O)[C@H](O)[C@@H](CO)O[C@H]2c2c(O)cc3oc(-c4ccc(O)c(O)c4)cc(=O)c3c2O)cc(OC)c1O,–,29.1,–,–
COc1cc(/C=C/C(=O)OC[C@H]2O[C@@H](Oc3cc(O)c4c(=O)cc(-c5ccc(O)cc5)oc4c3)[C@H](O)[C@@H](O)[C@@H]2O)ccc1O,8.8,41.8,–,–
O=C(/C=C/c1ccccc1)OC[C@H]1O[C@@H](Oc2cc(O)c3c(=O)cc(-c4ccc(O)c(O)c4)oc3c2)[C@H](O)[C@@H](O)[C@@H]1O,–,51.4,–,–
O=C(/C=C/c1ccc(O)cc1)O[C@@H]1[C@@H](O)[C@H](O)[C@@H](CO)O[C@H]1c1c(O)cc2oc(-c3ccc(O)c(O)c3)cc(=O)c2c1O,35.7,29.9,–,–
O=c1cc(-c2ccc(O)c(O)c2)oc2cc(O[C@@H]3O[C@H](CO)[C@@H](O)[C@H](O)[C@H]3O)cc(O)c12 [GALUTEOLIN],–,20.7,inactive,–
O=C(/C=C/c1ccc(O)cc1)OC[C@H]1O[C@@H](Oc2cc(O)c3c(=O)cc(-c4ccc(O)cc4)oc3c2)[C@H](O)[C@@H](O)[C@@H]1O,14.6,43.4,–,42
O=C(/C=C\c1ccccc1)OC[C@H]1O[C@@H](Oc2cc(O)c3c(=O)cc(-c4ccc(O)cc4)oc3c2)[C@H](O)[C@@H](O)[C@@H]1O,11.3,57.4,–,–
C[C@H]1O[C@H](O[C@H]2[C@H](O)[C@@H](O)[C@@H](O[C@H]3[C@H](O)[C@@H](O)C(O)O[C@@H]3CO)O[C@@H]2CO)[C@H](O)[C@@H](O)[C@@H]1N[C@H]1C=C(CO)[C@@H](O)[C@H](O)[C@H]1O (stereo not given in full) [ACARBOSE],0.033,–,–,–
O=c1cc(-c2ccc(O)c(O)c2)oc2cc(O)cc(O)c12 [LUTEOLIN],86.1,–,–,–
O=c1cc(-c2ccc(O)cc2)oc2cc(O)c([C@@H]3O[C@H](CO)[C@@H](O)[C@H](O)[C@H]3O)c(O)c12 [ISOVITEXIN],61.2,19.5,–,–
O=C(/C=C\c1ccc(O)cc1)OC[C@H]1O[C@@H](Oc2cc(O)c3c(=O)cc(-c4ccc(O)cc4)oc3c2)[C@H](O)[C@@H](O)[C@@H]1O,10.1,44.9,–,–
O=c1cc(-c2ccc(O)c(O)c2)oc2c([C@@H]3O[C@H](CO)[C@@H](O)[C@H](O)[C@H]3O)c(O)cc(O)c12 [ORIENTIN],–,16.6,–,–
O=c1cc(-c2ccc(O)cc2)oc2cc(O[C@@H]3O[C@H](CO)[C@@H](O)[C@H](O)[C@H]3O)cc(O)c12 [APIGETRIN],–,25.7,inactive,–
COc1cc(-c2cc(=O)c3c(O)cc(O)cc3o2)ccc1O [CHRYSOERIOL],–,51.4,–,–
O=c1cc(-c2ccc(O)c(O)c2)oc2cc(O)c([C@@H]3O[C@H](CO)[C@@H](O)[C@H](O)[C@H]3O)c(O)c12 [ISOORIENTIN],1530,14.9,–,–
O=c1cc(-c2ccc(O)cc2)oc2cc(O)cc(O)c12 [APIGENIN],34.6,50.2,–,–
